Results on three compounds are retold here after patent US7098216B2, “Thiazolopyrimidines useful as TNFα inhibitors” (The Regents of the University of California, priority 1999, dated 2006).

Like-named read-outs stand apart in the source and are kept apart here.

Series [1] deals with TNFα plasma concentration. The series can be described thus: Oral 8a dose response on LPS-induced plasma TNFα in mice. The format is in vivo, ICR mice. On the procedure:
ICR mice were dosed orally at 25, 50 and 100 mg/kg of 8a in cyclodextrin, prepared as in Example 7. After 1 hr., each mouse was injected with E. coli LPS (1 μg/mouse). Two hours later, 250 μl samples of blood were obtained by retro-orbital bleeding without anesthetization. The blood was heparinized, centrifuged for 10 min. at 10 K rpm (4° C.) and TNFα determined by ELISA. […] The two bars at the top of the figure show the baseline levels of TNFα in the mouse plasma, which were undetectable, and the effects of 8a administered alone, which were negligible.

Series [2] relates to TNFα production in human monocytes. The experiment in a line: Inhibition of LPS-induced TNFα production in human monocytes (ELISA). The format is cell-based. The note with it: Monocyte. On the procedure: (§1) Peripheral blood mononuclear cells were isolated from normal human blood on Hypaque-Ficoll density gradients. 100 μl aliquots of monocytes were placed onto 96 well microtiter plates at a density of […] in RPMI-1640 medium containing 10% autologous plasma. After incubation for 24 hrs., various concentrations of the test compound in DMSO were added to the plated cells in a volume of 100 μl and incubated for 1 hr. After incubation, […] of LPS was added to each well.
(§2) Eighteen hours after exposure of the plated cells to LPS, 100 μl of medium was collected from each well and assayed (by ELISA, R&D Systems) for release of IL-1 and TNFα, using recombinant human TNF as a standard (n=5). The sensitivity of the assay ranged from 10–100 pg/ml.
(In general: An ELISA detects its analyte on a solid surface through an enzyme-linked reagent.)

Series [3] deals with IL-1β production by human monocytes. The experiment in a line: Inhibition of LPS-induced IL-1β production in human monocytes (ELISA). The format is cell-based. The note with it: Monocyte; human monocytes stimulated with LPS (FIG. 2); read-out: 50% inhibitory dose, IL-1 production. The method, then:
as §1, §2
FIG. 2 summarizes the effects of 8b and 8a on the production of IL-1β by human monocytes stimulated with LPS, under the same conditions used for the TNFα study.

Series [4] is described as follows: Acute toxicity testing in ICR mice, IP. The format is in vivo. The conditions noted are these: five daily IP injections at 100 mg/kg, 30 days of observation. On the procedure: ICR mice (ca. 20 g) were injected IP for 5 days with 50 mg/kg, and 100 mg/kg of each of 8a and 8b dispersed in aqueous hydroxypropyl β-cyclodextrin (50% w/v).
The test system of the next series is TNFα in the plasma. The series can be described thus: Time course of TNFα inhibition after oral 8a in LPS-injected mice. The note with it: 100 mg/kg by gavage, LPS 24 hours later (FIG. 6). The format is in vivo, ICR mice. On the procedure: The purpose of these experiments was to determine how long after administration of compound 8a by gavage could its inhibitory effects on LPS-induced TNFα production be detected. Accordingly, all the ICR in this instance were given 8a at a dosage of 100 mg/kg by gavage. Then at 1, 4, 10, and 24 hours later, each animal received 1 μg/ml IP LPS, and two hours later (i.e., at 3, 6, 12, and 26 hours), blood was removed for TNFα ELISA.

Another series deals with adjuvant arthritis. The series can be described thus: Adjuvant arthritis in Lewis rats. Type of series: in vivo. The note with it: 100 mg/kg by gavage daily. The method, then: Since TNFα antagonists have shown considerable value in the treatment of rheumatoid arthritis, compound 8a was evaluated in an animal model that is TNFα dependent. Adjuvant arthritis is an acute inflammatory disease induced in certain rat strains by the administration of heat-killed mycobacteria dispersed in […]. The disease is manifest by severe joint swelling, mainly of the ankles and feet.
Two groups of seven Lewis rats each were immunized intradermally with 5 mg of heat-killed mycobacterium tuberculosis emulsified in incomplete Freund's adjuvant. One day later, one group of animals (N=7) received 100 mg/kg of 8a by gavage. Another group of animals received no treatment. The oral dosing was continued every day up to day 30. […] The mean arthritis score can vary from 0 to 4 for each limb, yielding a maximum score of 16. Note that the untreated animals (group 1) achieved a mean arthritis score of 10 on day 18. In contrast, the treated animals reach a mean arthritis score of 5, for 50% inhibition.

The subject of another series is Jurkat cell line. The series can be described thus: Jurkat cell growth, MTT assay. Type of series: cell-based, human. The conditions noted are these: concentration below 50 μM, 72 h, MTT (FIG. 3). The method, then:
In this experiment, cells of the continuous human lymphoblastoid Jurkat cell line were suspended at 1×10^5/ml in complete medium containing various amounts of 8a and 8b dissolved in DMSO. Seventy-two hours later the cell density was assessed using the MTT assay, which measures the reduction of a tetrazolium dye. The cell densities were compared to control cultures lacking any additional drugs.
For orientation: Formazan colour is commonly taken as a measure of viable cells.

[5] abbreviates: human monocytes, LPS, 18 h, ELISA (FIG. 1), read-out: IC50, TNFα production.

What is called inhibition is how much of the control response was suppressed. For `CCOC(=O)CCCn1c(=O)c2sc(N)nc2n(C)c1=O` [8a, Ethyl 4-[2-Amino-4-methyl-5,7-dioxothiazolo [4,5-d]pyrimidin-6-yl]-butanoate], the “effect on TNFα plasma concentration” value in series [1] (25 mg/kg oral, LPS 1 h later, blood 2 h after LPS (FIG. 5)) is “significant inhibitory effect”; in series [1] (50 mg/kg oral, compared with 25 mg/kg (FIG. 5)), “greater”. Further, the “effect of 8a administered alone on plasma TNFα” value in series [1] (without LPS (FIG. 5)) is reported as “negligible”. Besides, the IC50 is 0.676 µM in series [2] (Homo sapiens, 18 h, read-out: IC50, TNFα production); 0.676 µM in series [2] (Homo sapiens, read-out: TNF inhib. (IC50)); 1 to 3 µM in series [3]. Also, the “weight change or lethargy” value in series [4] is “no weight change or detectable lethargy”. Also, the “accumulation of TNFα in plasma of LPS-injected mice” value with TNFα in the plasma is “completely inhibited”. Further, in the series with adjuvant arthritis (maximum score 16, untreated 10 on day 18 (FIG. 7)), the mean arthritis score is reported as 5. Moreover, the inhibition at 100 mg/kg in the series with adjuvant arthritis (Rattus norvegicus, po, versus untreated, read-out: inhibition of arthritis score) came to 50%. In the series on Jurkat cell line, the “growth inhibitory activity on Jurkat cells” value is given as “neither 8b nor 8a had significant growth inhibitory activity”.

Regarding `Fc1ccc(-c2ncn(CCCN3CCOCC3)c2-c2ccncc2)cc1` [SB-210313, reference compound], in series [2] (setting [5]), the IC50 was determined as 1.15 µM.

On to `COc1ccc(C2CNC(=O)C2)cc1OC1CCCC1` (stereo not shown) [rolipram, reference compound], for which, in series [2] (setting [5]), the IC50 amounted to 2.5 µM.
